Where two headings read alike, the source gives them in different places.
Legend:
[1] = tested on: pancreatic cancer (8 cell lines); assay: CellTiter-Glo Viability Assay, pancreatic cancer; format: cell-based; details: Homo sapiens, inhibition of cancer cell proliferation
[2] = tested on: ovarian cancer (4 cell lines); assay: CellTiter-Glo Viability Assay, ovarian cancer; format: cell-based; details: Homo sapiens, inhibition of cancer cell proliferation
[3] = target: T1, CLK2 (Homo sapiens, UniProt P49760); assay: CLK2 kinase activity assay (Z-lyte, Ser/Thr 6 peptide); format: biochemical; details: recombinant CLK2 kinase, ATP 60 μM; read-out: EC50
T1 construct: purchased Thermo Fisher (Life Technologies), Z'-LYTE Kinase Assay Kits
T1 sequence (P49760 whole entry): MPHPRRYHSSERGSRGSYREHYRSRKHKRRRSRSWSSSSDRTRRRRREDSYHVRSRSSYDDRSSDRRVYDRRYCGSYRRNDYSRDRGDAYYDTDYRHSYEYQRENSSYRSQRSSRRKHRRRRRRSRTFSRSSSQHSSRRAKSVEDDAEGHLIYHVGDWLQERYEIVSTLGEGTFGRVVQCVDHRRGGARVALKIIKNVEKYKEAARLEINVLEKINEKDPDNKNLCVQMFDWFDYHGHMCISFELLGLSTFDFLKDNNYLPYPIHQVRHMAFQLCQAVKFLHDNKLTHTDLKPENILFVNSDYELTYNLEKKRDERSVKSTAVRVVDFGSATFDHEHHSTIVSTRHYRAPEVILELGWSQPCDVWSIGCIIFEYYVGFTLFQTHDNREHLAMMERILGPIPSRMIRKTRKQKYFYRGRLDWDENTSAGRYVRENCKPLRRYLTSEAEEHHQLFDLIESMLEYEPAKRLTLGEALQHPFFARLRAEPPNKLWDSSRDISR
Method: All reactions were performed in duplicate.

[4] = tested on: prostate cancer (5 cell lines); assay: CellTiter-Glo Viability Assay, prostate cancer; format: cell-based; details: Homo sapiens
[5] = tested on: liver cancer (3 cell lines); assay: CellTiter-Glo Viability Assay, liver cancer; format: cell-based; details: Homo sapiens, inhibition of cancer cell proliferation
[6] = tested on: colorectal cancer (6 cell lines); assay: CellTiter-Glo Viability Assay, colorectal cancer; format: cell-based; details: Homo sapiens, inhibition of cancer cell proliferation
[7] = target: CLK3 (Homo sapiens, UniProt P49761); assay: CLK3 kinase activity assay (Z-lyte, Ser/Thr 18 peptide)
Chain of CLK3 (P49761 whole entry): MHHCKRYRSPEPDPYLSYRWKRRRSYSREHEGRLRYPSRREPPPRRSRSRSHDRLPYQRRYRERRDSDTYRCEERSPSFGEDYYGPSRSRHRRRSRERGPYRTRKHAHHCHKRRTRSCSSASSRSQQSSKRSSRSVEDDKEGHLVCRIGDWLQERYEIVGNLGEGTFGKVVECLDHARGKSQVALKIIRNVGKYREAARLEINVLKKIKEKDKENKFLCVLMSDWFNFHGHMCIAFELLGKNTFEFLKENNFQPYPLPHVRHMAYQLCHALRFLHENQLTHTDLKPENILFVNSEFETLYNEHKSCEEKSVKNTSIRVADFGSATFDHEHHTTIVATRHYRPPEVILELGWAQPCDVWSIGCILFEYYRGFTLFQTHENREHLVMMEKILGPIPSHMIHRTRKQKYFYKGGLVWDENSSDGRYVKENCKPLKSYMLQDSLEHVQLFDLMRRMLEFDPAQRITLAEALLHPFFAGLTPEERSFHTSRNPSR

[8] = tested on: all 50 cell lines; assay: CellTiter-Glo Viability Assay, average across all cell lines; format: cell-based; details: Homo sapiens; across all 50 cell lines; read-out: average EC50 for inhibition of cancer cell proliferation
In short: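 Cells were plated at 300-3,000 per well in their own media, then treated with compound in duplicate, with DMSO wells as controls. After four days at 37° C and 5% CO2, CellTiter-Glo was added, and luminescence was read. EC50s were fitted.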

[9] = tested on: haematopoietic & lymphoid tumors (13 cell lines); assay: CellTiter-Glo Viability Assay, haematopoietic & lymphoid tumors; format: cell-based; details: Homo sapiens, inhibition of cancer cell proliferation
[10] = tested on: lung cancer (4 cell lines); assay: CellTiter-Glo Viability Assay, lung cancer; format: cell-based; details: Homo sapiens, inhibition of cancer cell proliferation
[11] = tested on: DU4475; assay: CellTiter-Glo Viability Assay, breast cancer; format: cell-based; details: Homo sapiens, DU-4475, 96 h; DU4475, breast cancer, four days; read-out: EC50
[12] = tested on: MDA-MB-231-Luc; assay: CellTiter-Glo Viability Assay, breast cancer; format: cell-based; details: Homo sapiens, 96 h; MDA-MB-231-Luc, breast cancer, four days; read-out: EC50
[13] = tested on: CAMA1; assay: CellTiter-Glo Viability Assay, breast cancer; format: cell-based; details: Homo sapiens, CAMA-1, 96 h; CAMA1, breast cancer, four days; read-out: EC50
[14] = tested on: BT-549; assay: CellTiter-Glo Viability Assay, breast cancer; format: cell-based; details: Homo sapiens, 96 h; BT-549, breast cancer, four days; read-out: EC50
[15] = tested on: MCF7; assay: CellTiter-Glo Viability Assay, breast cancer; format: cell-based; details: Homo sapiens, 96 h; MCF7, breast cancer, four days; read-out: EC50
[16] = tested on: HCC1599; assay: CellTiter-Glo Viability Assay, breast cancer; format: cell-based; details: Homo sapiens, 96 h; HCC1599, breast cancer, four days; read-out: EC50
[17] = tested on: T47D; assay: CellTiter-Glo Viability Assay, breast cancer; format: cell-based; details: Homo sapiens, 96 h, breast cancer, four days, read-out: EC50
[18] = tested on: ZR-75-1; assay: CellTiter-Glo Viability Assay, breast cancer; format: cell-based; details: Homo sapiens, 96 h; ZR-75-1, breast cancer, four days; read-out: EC50
[19] = BXPC-3, BxPC3 cell line, read-out: Pancreatic cancer, EC50 BxPC3
[20] = CAPAN-1, Capan1 cell line, read-out: Pancreatic cancer, EC50 Capan1
[21] = Capan-2, Capan2 cell line, read-out: Pancreatic cancer, EC50 Capan2
[22] = MIA PaCa-2 cell line, read-out: Pancreatic cancer, EC50 MIA PaCa-2
[23] = PANC 05.04 cell line, read-out: Pancreatic cancer, EC50 PANC 05.04
[24] = PANC-1 cell line, read-out: Pancreatic cancer, EC50 PANC-1
[25] = UPAFII cell line, read-out: Pancreatic cancer, EC50 UPAFII
[26] = PA-1, PA1 cell line, read-out: Ovarian cancer, EC50 (μM) PA1
[27] = TOV112D, TOV-112D cell line, read-out: Ovarian cancer, EC50 (μM) TOV-112D
[28] = OV-90 cell line, read-out: Ovarian cancer, EC50 (μM) OV-90
[29] = OVCAR-3 cell line, read-out: Ovarian cancer, EC50 (μM) OVCAR-3
[30] = DU-145, read-out: Prostate cancer EC50 Du-145
[31] = PC-3, PC3 cell line, inhibition of cancer cell proliferation, read-out: Prostate cancer EC50 PC3
[32] = 22Rv1 cell line, inhibition of cancer cell proliferation, read-out: Prostate cancer EC50 22Rv1
[33] = LNCap clone FGC cell line, inhibition of cancer cell proliferation, read-out: Prostate cancer EC50 LNCap clone FGC
[34] = VCaP (Sigma) cell line, inhibition of cancer cell proliferation, read-out: Prostate cancer EC50 VCaP (Sigma)
[35] = SNU-398, SNU398 cell line, read-out: Liver cancer, EC50 SNU398
[36] = HEPG2 cell line, read-out: Liver cancer, EC50 HEPG2
[37] = PLC/PRF/5 cell line, read-out: Liver cancer, EC50 PLC/PRF/5
[38] = HCT-116, HCT116 cell line, read-out: Colorectal cancer, EC50 (μM) HCT116
[39] = HT-29, HT29 cell line, read-out: Colorectal cancer, EC50 (μM) HT29
[40] = SW-620, SW620 cell line, read-out: Colorectal cancer, EC50 (μM) SW620
[41] = DLD-1 cell line, read-out: Colorectal cancer, EC50 (μM) DLD-1
[42] = SW48 cell line, read-out: Colorectal cancer, EC50 (μM) SW48
[43] = DND41, DND-41 cell line, read-out: Haematopoietic & Lymphoid tumors, EC50 (μM) DND-41
[44] = MV4-11, MV-4-11 cell line, read-out: Haematopoietic & Lymphoid tumors, EC50 (μM) MV-4-11
[45] = Rec1, REC-1 cell line, read-out: Haematopoietic & Lymphoid tumors, EC50 (μM) REC-1
[46] = SU-DHL-4, SUDHL4 cell line, read-out: Haematopoietic & Lymphoid tumors, EC50 (μM) SUDHL4
[47] = HL-60 cell line, read-out: Haematopoietic & Lymphoid tumors, EC50 (μM) HL-60
[48] = JM1 cell line, read-out: Haematopoietic & Lymphoid tumors, EC50 (μM) JM1
[49] = JURKAT, Clone E6-1 cell line, read-out: Haematopoietic & Lymphoid tumors, EC50 (μM) JURKAT, Clone E6-1
[50] = JeKo-1 cell line, read-out: Haematopoietic & Lymphoid tumors, EC50 (μM) JeKo-1
[51] = KASUMI-1 cell line, read-out: Haematopoietic & Lymphoid tumors, EC50 (μM) KASUMI-1
[52] = Loucy cell line, read-out: Haematopoietic & Lymphoid tumors, EC50 (μM) Loucy
[53] = MOLT-4 cell line, read-out: Haematopoietic & Lymphoid tumors, EC50 (μM) MOLT-4
[54] = TF-1 cell line, read-out: Haematopoietic & Lymphoid tumors, EC50 (μM) TF-1
[55] = TOLEDO cell line, read-out: Haematopoietic & Lymphoid tumors, EC50 (μM) TOLEDO
[56] = A-427, A427 cell line, read-out: Lung cancer, EC50 (μM) A427
[57] = HCC78, HCC-78 cell line, read-out: Lung cancer, EC50 (μM) HCC-78
[58] = NCI-H460 cell line, read-out: Lung cancer, EC50 (μM) NCI-H460
[59] = NCI-H522 cell line, read-out: Lung cancer, EC50 (μM) NCI-H522

Compound: CC(C)CC(=O)Nc1cncc(-c2ccc3[nH]nc(-c4cc5c(N6CCCCC6)cncc5[nH]4)c3c2)c1 [Compound 50]
- EC50 [1, 19]: 3410 nM
- EC50 [1, 20]: 3510 nM
- EC50 [1, 21]: 2210 nM
- EC50 [1, 22]: 381 nM
- EC50 [1, 23]: 2920 nM
- EC50 [1, 24]: > 10000 nM
- EC50 [1, 25]: 1720 nM
- EC50 [2, 26]: 1.09 µM
- EC50 [2, 27]: 0.419 µM
- EC50 [2, 28]: 1.34 µM
- EC50 [2, 29]: 0.67 µM
- EC50 [3]: 3.8 nM
- EC50 [4, 30]: 955 nM
- EC50 [4, 31]: 759 nM
- EC50 [4, 32]: 833 nM
- EC50 [4, 33]: 1640 nM
- EC50 [4, 34]: 1790 nM
- EC50 [5, 35]: 91 nM
- EC50 [5, 36]: 1460 nM
- EC50 [5, 37]: 3540 nM
- EC50 [6, 38]: 0.522 µM
- EC50 [6, 39]: 2.8 µM
- EC50 [6, 40]: 0.239 µM
- EC50 [6, 41]: 1.17 µM
- EC50 [6, 42]: 0.312 µM
- EC50 ([6]; SW480 cell line, read-out: Colorectal cancer, EC50 (μM) SW480): 0.274 µM
- EC50 [7]: 35.1 nM
- EC50 [8]: 1590 nM
- EC50 [9, 43]: 0.258 µM
- EC50 [9, 44]: 0.122 µM
- EC50 [9, 45]: 3.62 µM
- EC50 [9, 46]: 0.419 µM
- EC50 [9, 47]: 0.767 µM
- EC50 [9, 48]: 0.256 µM
- EC50 [9, 49]: 1.07 µM
- EC50 [9, 50]: 0.159 µM
- EC50 [9, 51]: 1.27 µM
- EC50 [9, 52]: 0.174 µM
- EC50 [9, 53]: 1.29 µM
- EC50 [9, 54]: 2.73 µM
- EC50 [9, 55]: 0.441 µM
- EC50 [10, 56]: 0.489 µM
- EC50 [10, 57]: 0.92 µM
- EC50 [10, 58]: 9.68 µM
- EC50 [10, 59]: 0.31 µM
- EC50 [11]: 750 nM
- EC50 [12]: 1200 nM
- EC50 [13]: 919 nM
- EC50 [14]: 1530 nM
- EC50 [15]: 3520 nM
- EC50 [16]: 828 nM
- EC50 [17]: 1740 nM
- EC50 [18]: 1110 nM

Compound: CN(C)Cc1cncc(-c2ccc3[nH]nc(-c4cc5c(-c6ccoc6)ccnc5[nH]4)c3c2)c1 [Compound 51]
- EC50 [1, 19]: > 10000 nM
- EC50 [1, 20]: > 10000 nM
- EC50 [1, 21]: > 10000 nM
- EC50 [1, 22]: 3520 nM
- EC50 [1, 23]: > 10000 nM
- EC50 [1, 24]: > 10000 nM
- EC50 [1, 25]: 8920 nM
- EC50 [2, 26]: 8.98 µM
- EC50 [2, 27]: > 10 µM
- EC50 [2, 28]: > 10 µM
- EC50 [2, 29]: 3.22 µM
- EC50 [3]: 1.4 nM
- EC50 [4, 30]: > 10000 nM
- EC50 [4, 31]: 7870 nM
- EC50 [4, 32]: 859 nM
- EC50 [4, 33]: > 10000 nM
- EC50 [4, 34]: > 10000 nM
- EC50 [5, 35]: 232 nM
- EC50 [5, 36]: > 10000 nM
- EC50 [5, 37]: > 10000 nM
- EC50 [6, 38]: 3.45 µM
- EC50 [6, 39]: > 10 µM
- EC50 [6, 40]: 2.34 µM
- EC50 [6, 41]: 1.64 µM
- EC50 [6, 42]: 3.77 µM
- EC50 [7]: 31 nM
- EC50 [8]: 6510 nM
- EC50 [9, 43]: 0.853 µM
- EC50 [9, 44]: 0.406 µM
- EC50 [9, 45]: 0.527 µM
- EC50 [9, 46]: 0.501 µM
- EC50 [9, 47]: 9.46 µM
- EC50 [9, 48]: 0.195 µM
- EC50 [9, 49]: 2.79 µM
- EC50 [9, 50]: 0.713 µM
- EC50 [9, 51]: 5.07 µM
- EC50 [9, 52]: 1.28 µM
- EC50 [9, 53]: 7.26 µM
- EC50 [9, 54]: 7.92 µM
- EC50 [9, 55]: 0.302 µM
- EC50 [10, 56]: > 10 µM
- EC50 [10, 57]: > 10 µM
- EC50 [10, 58]: > 10 µM
- EC50 [10, 59]: 5.83 µM
- EC50 [11]: 7190 nM
- EC50 [12]: > 10000 nM
- EC50 [13]: > 10000 nM
- EC50 [14]: > 10000 nM
- EC50 [15]: > 10000 nM
- EC50 [16]: 407 nM
- EC50 [17]: > 10000 nM
- EC50 [18]: > 10000 nM

— patent US20220062240A1, “METHODS OF TREATING CANCER USING A CLK INHIBITOR” (BioSplice Therapeutics, Inc., priority 2018, published 2022)
